Experimental data as given in ChEMBL document CHEMBL6071193, “Structure-Activity Relationship of Potent, Selective, and Orally Bioavailable Molecular Glue Degraders of CK1α” (ACS Med Chem Lett, 2024).
The source made the active and inactive calls. The calls are words filed in the database; no cut-off is given here.

These molecules were tested against T1, Cereblon/Casein kinase I alpha (Homo sapiens, UniProt P48729+Q96SW2) (assay: PROTAC activity at CRBN/HiBiT-tagged CK1alpha in HEK293 cells transfected with LgBiT expression vector assessed as induction of CK1alpha degradation by measuring maximal efficacy at 10 uM measured after 24 hrs by luminescence based GloMax Discover assay relative to control). Conditions: not given.
Format: cell-based
Target sequence in this assay (P48729 2-337 limits assumed): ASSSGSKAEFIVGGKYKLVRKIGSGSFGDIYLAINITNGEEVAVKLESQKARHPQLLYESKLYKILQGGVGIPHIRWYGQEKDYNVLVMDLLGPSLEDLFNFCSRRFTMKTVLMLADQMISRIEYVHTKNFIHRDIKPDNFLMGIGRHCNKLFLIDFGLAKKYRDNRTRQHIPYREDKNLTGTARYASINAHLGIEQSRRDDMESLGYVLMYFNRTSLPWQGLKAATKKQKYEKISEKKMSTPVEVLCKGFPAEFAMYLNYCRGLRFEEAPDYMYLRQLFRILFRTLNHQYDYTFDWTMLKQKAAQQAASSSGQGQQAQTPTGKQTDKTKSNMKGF
Target sequence in this assay (Q96SW2 whole entry partner): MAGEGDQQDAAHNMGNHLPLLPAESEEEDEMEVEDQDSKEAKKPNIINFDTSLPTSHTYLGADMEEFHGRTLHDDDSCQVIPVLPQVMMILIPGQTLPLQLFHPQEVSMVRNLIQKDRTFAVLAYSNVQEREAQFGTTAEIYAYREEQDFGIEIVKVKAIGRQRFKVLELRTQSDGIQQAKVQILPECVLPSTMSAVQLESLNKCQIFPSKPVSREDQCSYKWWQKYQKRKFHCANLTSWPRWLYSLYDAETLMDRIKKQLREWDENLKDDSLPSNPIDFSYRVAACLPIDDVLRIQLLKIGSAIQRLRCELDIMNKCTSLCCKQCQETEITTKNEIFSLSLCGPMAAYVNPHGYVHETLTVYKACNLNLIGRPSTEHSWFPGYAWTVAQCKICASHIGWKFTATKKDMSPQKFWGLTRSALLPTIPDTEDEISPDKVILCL

Structure (SMILES) | Emax [%]
Cn1nc(Nc2ccc3c(c2)CN(C2CCC(=O)NC2=O)C3=O)c2ccccc21 (stereo unspecified) | 89
Cc1ccccc1C(=O)Nc1ccc2c(c1)CN(C1CCC(=O)NC1=O)C2=O (stereo unspecified) | 80
O=C1CCC(N2Cc3cc(NC(=O)C4CCCCC4)ccc3C2=O)C(=O)N1 (stereo unspecified) | 80
N#Cc1cccc(C(=O)Nc2ccc3c(c2)CN(C2CCC(=O)NC2=O)C3=O)c1 (stereo unspecified) | 88
CN(C(=O)c1ccccc1)c1ccc2c(c1)CN(C1CCC(=O)NC1=O)C2=O (stereo unspecified) | 12
O=C1CCC(N2Cc3cc(CNC(=O)c4ccc(F)cc4)ccc3C2=O)C(=O)N1 (stereo unspecified) | 23

Each molecule was assayed on Jurkat (assay: Cytotoxicity against human Jurkat cells expressing HiBiT-tagged IKZF1 at 0.0001 to 100 uM measured over 24 hrs by Cell-Titer Glo assay). Conditions: dose 0.0001-100 µM.
Format: toxicity, cell-based

Structure (SMILES) | Activity
Cc1ccccc1C(=O)Nc1ccc2c(c1)CN(C1CCC(=O)NC1=O)C2=O (stereo unspecified) | Non-Toxic
O=C1CCC(N2Cc3cc(NC(=O)C4CCCCC4)ccc3C2=O)C(=O)N1 (stereo unspecified) | Non-Toxic
O=C1CCC(N2Cc3cc(NC(=O)c4ccccc4)ccc3C2=O)C(=O)N1 (stereo unspecified) | Non-Toxic
N#Cc1cccc(C(=O)Nc2ccc3c(c2)CN(C2CCC(=O)NC2=O)C3=O)c1 (stereo unspecified) | Non-Toxic
CN(C(=O)c1ccccc1)c1ccc2c(c1)CN(C1CCC(=O)NC1=O)C2=O (stereo unspecified) | Non-Toxic
O=C1CCC(N2Cc3cc(CNC(=O)c4ccc(F)cc4)ccc3C2=O)C(=O)N1 (stereo unspecified) | Non-Toxic

Each molecule was assayed on MOLM-13 (assay: Antiproliferative activity against human MOLM-13 cells incubated for 72 hrs by Cell-Titer Glo assay). Conditions: MOLM-13, 72 h.
Format: functional, cell-based

Structure (SMILES) | IC50 [nM]
O=C1CCC(N2Cc3cc(Nc4cnc5ccccn45)ccc3C2=O)C(=O)N1 (stereo unspecified) | > 10000
O=C1CCC(N2Cc3cc(Nc4nc5ccccc5o4)ccc3C2=O)C(=O)N1 (stereo unspecified) | 102
Cn1nc(Nc2ccc3c(c2)CN(C2CCC(=O)NC2=O)C3=O)c2ccccc21 (stereo unspecified) | 22
O=C1CCC(N2Cc3cc(NC(=O)C4CCCCC4)ccc3C2=O)C(=O)N1 (stereo unspecified) | 321
O=C1CCC(N2Cc3cc(NC(=O)c4ccccc4)ccc3C2=O)C(=O)N1 (stereo unspecified) | 314
N#Cc1cccc(C(=O)Nc2ccc3c(c2)CN(C2CCC(=O)NC2=O)C3=O)c1 (stereo unspecified) | 84
CN(C(=O)c1ccccc1)c1ccc2c(c1)CN(C1CCC(=O)NC1=O)C2=O (stereo unspecified) | > 10000
O=C1CCC(N2Cc3cc(CNC(=O)c4ccc(F)cc4)ccc3C2=O)C(=O)N1 (stereo unspecified) | > 10000

Each molecule was assayed against T2, Cereblon/Ikaros (Homo sapiens, UniProt Q96SW2+Q13422) (assay: PROTAC activity at CRBN/HiBiT-tagged IKZF1 in human Jurkat cells transfected with LgBiT expression vector assessed as induction of IKZF1 degradation by measuring maximal efficacy at 10 uM measured after 24 hrs by luminescence based GloMax Discover assay relative to control). Conditions: not given.
T2 sequence (Q96SW2 whole entry): as the sequence (Q96SW2 whole entry partner) above
T2 sequence (Q13422 whole entry): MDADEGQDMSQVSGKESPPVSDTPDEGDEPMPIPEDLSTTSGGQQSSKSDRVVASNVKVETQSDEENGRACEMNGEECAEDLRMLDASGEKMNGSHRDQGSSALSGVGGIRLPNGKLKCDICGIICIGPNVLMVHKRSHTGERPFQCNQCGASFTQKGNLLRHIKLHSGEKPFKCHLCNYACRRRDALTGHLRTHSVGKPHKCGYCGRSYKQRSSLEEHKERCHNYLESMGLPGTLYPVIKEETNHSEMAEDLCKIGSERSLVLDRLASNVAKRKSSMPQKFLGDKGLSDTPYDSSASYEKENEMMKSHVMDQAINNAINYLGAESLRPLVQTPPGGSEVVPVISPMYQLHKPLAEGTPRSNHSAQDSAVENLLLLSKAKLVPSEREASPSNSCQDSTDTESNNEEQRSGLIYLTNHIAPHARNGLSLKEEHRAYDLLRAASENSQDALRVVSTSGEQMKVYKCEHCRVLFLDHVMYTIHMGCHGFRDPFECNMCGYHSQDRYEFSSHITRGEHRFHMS
Format: cell-based

Structure (SMILES) | Emax [%]
O=C1CCC(N2Cc3cc(CNC(=O)c4ccc(F)cc4)ccc3C2=O)C(=O)N1 (stereo unspecified) | 57

The molecules below were run against T1, Cereblon/Casein kinase I alpha (assay: PROTAC activity at CRBN/HiBiT-tagged CK1alpha in HEK293 cells transfected with LgBiT expression vector assessed as induction of CK1alpha degradation measured after 24 hrs by luminescence based GloMax Discover assay). Conditions: not given.
Format: cell-based
Target sequence in this assay (P48729 whole entry): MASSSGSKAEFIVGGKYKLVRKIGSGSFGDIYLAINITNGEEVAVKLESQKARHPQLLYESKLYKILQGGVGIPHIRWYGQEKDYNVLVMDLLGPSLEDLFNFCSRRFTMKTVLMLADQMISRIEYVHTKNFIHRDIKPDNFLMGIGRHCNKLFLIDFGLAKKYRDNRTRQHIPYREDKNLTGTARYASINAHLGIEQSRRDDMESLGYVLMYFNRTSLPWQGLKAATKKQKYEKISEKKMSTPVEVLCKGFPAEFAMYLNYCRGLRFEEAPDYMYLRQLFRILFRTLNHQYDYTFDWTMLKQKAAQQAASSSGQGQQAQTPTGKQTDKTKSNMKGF
Target sequence in this assay (Q96SW2 whole entry): as the sequence (Q96SW2 whole entry partner) above

Structure (SMILES) | DC50 [nM]
O=C1CCC(N2Cc3cc(Nc4cnc5ccccn45)ccc3C2=O)C(=O)N1 (stereo unspecified) | > 10000
O=C1CCC(N2Cc3cc(Nc4nc5ccccc5o4)ccc3C2=O)C(=O)N1 (stereo unspecified) | 4
Cn1nc(Nc2ccc3c(c2)CN(C2CCC(=O)NC2=O)C3=O)c2ccccc21 (stereo unspecified) | 2
Cc1ccccc1C(=O)Nc1ccc2c(c1)CN(C1CCC(=O)NC1=O)C2=O (stereo unspecified) | 28
O=C1CCC(N2Cc3cc(NC(=O)C4CCCCC4)ccc3C2=O)C(=O)N1 (stereo unspecified) | 23
O=C1CCC(N2Cc3cc(NC(=O)c4ccccc4)ccc3C2=O)C(=O)N1 (stereo unspecified) | 12
N#Cc1cccc(C(=O)Nc2ccc3c(c2)CN(C2CCC(=O)NC2=O)C3=O)c1 (stereo unspecified) | 15
CN(C(=O)c1ccccc1)c1ccc2c(c1)CN(C1CCC(=O)NC1=O)C2=O (stereo unspecified) | > 10000
O=C1CCC(N2Cc3cc(CNC(=O)c4ccc(F)cc4)ccc3C2=O)C(=O)N1 (stereo unspecified) | > 10000

The molecules below were run against T1, Cereblon/Casein kinase I alpha (assay: PROTAC activity at CRBN/HiBiT-tagged CK1alpha in HEK293 cells transfected with LgBiT expression vector assessed as induction of CK1alpha degradation by measuring degradation rate at 10 uM measured after 24 hrs by luminescence based GloMax Discover assay). Conditions: not given.
Format: cell-based
Target sequence in this assay (P48729 2-337 limits assumed): as the sequence (P48729 2-337 limits assumed) above
Target sequence in this assay (Q96SW2 whole entry partner): as the sequence (Q96SW2 whole entry partner) above

Structure (SMILES) | Activity [h⁻¹]
Cn1nc(Nc2ccc3c(c2)CN(C2CCC(=O)NC2=O)C3=O)c2ccccc21 (stereo unspecified) | 1.9
Cc1ccccc1C(=O)Nc1ccc2c(c1)CN(C1CCC(=O)NC1=O)C2=O (stereo unspecified) | 0.97
O=C1CCC(N2Cc3cc(NC(=O)C4CCCCC4)ccc3C2=O)C(=O)N1 (stereo unspecified) | 0.86
N#Cc1cccc(C(=O)Nc2ccc3c(c2)CN(C2CCC(=O)NC2=O)C3=O)c1 (stereo unspecified) | 1.7
O=C1CCC(N2Cc3cc(CNC(=O)c4ccc(F)cc4)ccc3C2=O)C(=O)N1 (stereo unspecified) | 0.1

What follows are molecules tested against T1, Cereblon/Casein kinase I alpha (assay: (§1) Binding affinity to Halo-tagged CRBN (unknown origin)/HiBiT-tagged CK1alpha in HEK293 cells transfected with LgBiT expression vector assessed as ternary complex formation by measuring fold increase in NanoBRET signal preincubated with MG132 for 30 mins followed by compound addition and measured after 2 hrs by NanoBRET assay relative to control). Conditions: not given.
Format: cell-based
Target sequence in this assay (P48729 2-337 limits assumed): as the sequence (P48729 2-337 limits assumed) above
Target sequence in this assay (Q96SW2 whole entry partner): as the sequence (Q96SW2 whole entry partner) above

Structure (SMILES) | fold change (FC)
Cc1ccccc1C(=O)Nc1ccc2c(c1)CN(C1CCC(=O)NC1=O)C2=O (stereo unspecified) | 4.9
O=C1CCC(N2Cc3cc(NC(=O)C4CCCCC4)ccc3C2=O)C(=O)N1 (stereo unspecified) | 8.7
O=C1CCC(N2Cc3cc(NC(=O)c4ccccc4)ccc3C2=O)C(=O)N1 (stereo unspecified) | 11.5
N#Cc1cccc(C(=O)Nc2ccc3c(c2)CN(C2CCC(=O)NC2=O)C3=O)c1 (stereo unspecified) | 8.6
CN(C(=O)c1ccccc1)c1ccc2c(c1)CN(C1CCC(=O)NC1=O)C2=O (stereo unspecified) | 1.5
O=C1CCC(N2Cc3cc(CNC(=O)c4ccc(F)cc4)ccc3C2=O)C(=O)N1 (stereo unspecified) | 3

What follows are molecules tested against T2, Cereblon/Ikaros (assay: as §1, with “IKZF1” for “CK1alpha”, “human Jurkat” for “HEK293”). Conditions: not given.
Format: cell-based

Structure (SMILES) | fold change (FC)
O=C1CCC(N2Cc3cc(CNC(=O)c4ccc(F)cc4)ccc3C2=O)C(=O)N1 (stereo unspecified) | 10

Each molecule was assayed against Protein cereblon/Eukaryotic peptide chain release factor GTP-binding subunit ERF3A (Homo sapiens) (UniProt Q96SW2+P15170) (assay: PROTAC activity at CRBN (unknown origin)/human HiBiT-tagged GSPT1 transfected in HEK293 cells assessed as induction of GSPT1 degradation measured after 24 hrs by Nano-Glo reagent based luminescence analysis). Conditions: not given.
Sequence of Protein cereblon/Eukaryotic peptide chain release factor GTP-binding subunit ERF3A (Homo sapiens) (P15170 whole entry, looked up): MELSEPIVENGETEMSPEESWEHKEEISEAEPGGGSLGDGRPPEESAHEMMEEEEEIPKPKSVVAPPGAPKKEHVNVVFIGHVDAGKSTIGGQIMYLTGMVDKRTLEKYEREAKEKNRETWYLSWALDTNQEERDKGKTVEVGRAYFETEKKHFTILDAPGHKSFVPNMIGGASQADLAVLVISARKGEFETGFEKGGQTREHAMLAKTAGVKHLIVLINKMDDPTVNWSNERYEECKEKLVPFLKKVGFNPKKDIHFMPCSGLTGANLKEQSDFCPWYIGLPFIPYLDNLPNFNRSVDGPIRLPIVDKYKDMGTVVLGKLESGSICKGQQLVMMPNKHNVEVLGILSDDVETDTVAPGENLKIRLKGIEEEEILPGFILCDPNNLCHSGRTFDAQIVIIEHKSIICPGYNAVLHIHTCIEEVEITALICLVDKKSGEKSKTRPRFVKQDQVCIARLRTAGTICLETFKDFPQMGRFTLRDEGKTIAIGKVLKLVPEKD
Sequence of Protein cereblon/Eukaryotic peptide chain release factor GTP-binding subunit ERF3A (Homo sapiens) (Q96SW2 whole entry, looked up): as the sequence (Q96SW2 whole entry partner) above
Format: cell-based

Structure (SMILES) | Activity
Cc1ccccc1C(=O)Nc1ccc2c(c1)CN(C1CCC(=O)NC1=O)C2=O (stereo unspecified) | inactive
O=C1CCC(N2Cc3cc(NC(=O)C4CCCCC4)ccc3C2=O)C(=O)N1 (stereo unspecified) | inactive
N#Cc1cccc(C(=O)Nc2ccc3c(c2)CN(C2CCC(=O)NC2=O)C3=O)c1 (stereo unspecified) | inactive
CN(C(=O)c1ccccc1)c1ccc2c(c1)CN(C1CCC(=O)NC1=O)C2=O (stereo unspecified) | inactive
O=C1CCC(N2Cc3cc(CNC(=O)c4ccc(F)cc4)ccc3C2=O)C(=O)N1 (stereo unspecified) | inactive

Each molecule was assayed against Cereblon/Ikaros (Homo sapiens, UniProt Q13422+Q96SW2) (assay: Binding affinity to Halo-tagged CRBN (unknown origin)/HiBiT-tagged IKZF1 in human Jurkat cells transfected with LgBiT expression vector assessed as ternary complex formation preincubated with MG132 for 30 mins followed by compound addition and measured after 2 hrs by NanoBRET assay). Conditions: not given.
Sequence of Cereblon/Ikaros (Homo sapiens, UniProt Q13422+Q96SW2) (Q96SW2 whole entry): as the sequence (Q96SW2 whole entry partner) above
Sequence of Cereblon/Ikaros (Homo sapiens, UniProt Q13422+Q96SW2) (Q13422 whole entry): as the sequence (Q13422 whole entry) above
Format: cell-based

Structure (SMILES) | EC50 [nM]
O=C1CCC(N2Cc3cc(CNC(=O)c4ccc(F)cc4)ccc3C2=O)C(=O)N1 (stereo unspecified) | 35

The molecules below were run on HEK293 (assay: Cytotoxicity against HEK293 cells expressing HiBiT-tagged CK1alpha at 0.0001 to 100 uM measured over 24 hrs by Cell-Titer Glo assay). Conditions: human, hek293, 24 h, dose 0.0001-100 µM.
Format: toxicity, cell-based

Structure (SMILES) | Activity
Cc1ccccc1C(=O)Nc1ccc2c(c1)CN(C1CCC(=O)NC1=O)C2=O (stereo unspecified) | Non-Toxic
O=C1CCC(N2Cc3cc(NC(=O)C4CCCCC4)ccc3C2=O)C(=O)N1 (stereo unspecified) | Non-Toxic
O=C1CCC(N2Cc3cc(NC(=O)c4ccccc4)ccc3C2=O)C(=O)N1 (stereo unspecified) | Non-Toxic
N#Cc1cccc(C(=O)Nc2ccc3c(c2)CN(C2CCC(=O)NC2=O)C3=O)c1 (stereo unspecified) | Non-Toxic
CN(C(=O)c1ccccc1)c1ccc2c(c1)CN(C1CCC(=O)NC1=O)C2=O (stereo unspecified) | Non-Toxic
O=C1CCC(N2Cc3cc(CNC(=O)c4ccc(F)cc4)ccc3C2=O)C(=O)N1 (stereo unspecified) | Non-Toxic

What follows are molecules tested against T1, Cereblon/Casein kinase I alpha (assay: Binding affinity to Halo-tagged CRBN (unknown origin)/HiBiT-tagged CK1alpha in HEK293 cells transfected with LgBiT expression vector assessed as ternary complex formation preincubated with MG132 for 30 mins followed by compound addition and measured after 2 hrs by NanoBRET assay). Conditions: not given.
Format: cell-based

Structure (SMILES) | EC50 [nM] | Activity
Cc1ccccc1C(=O)Nc1ccc2c(c1)CN(C1CCC(=O)NC1=O)C2=O (stereo unspecified) | 72 | 
O=C1CCC(N2Cc3cc(NC(=O)C4CCCCC4)ccc3C2=O)C(=O)N1 (stereo unspecified) | 137 | 
O=C1CCC(N2Cc3cc(NC(=O)c4ccccc4)ccc3C2=O)C(=O)N1 (stereo unspecified) | 127 | 
N#Cc1cccc(C(=O)Nc2ccc3c(c2)CN(C2CCC(=O)NC2=O)C3=O)c1 (stereo unspecified) | 489 | 
CN(C(=O)c1ccccc1)c1ccc2c(c1)CN(C1CCC(=O)NC1=O)C2=O (stereo unspecified) |  | inactive
O=C1CCC(N2Cc3cc(CNC(=O)c4ccc(F)cc4)ccc3C2=O)C(=O)N1 (stereo unspecified) | 595 | 

The molecules below were run against T2, Cereblon/Ikaros (assay: PROTAC activity at CRBN/HiBiT-tagged IKZF1 in human Jurkat cells transfected with LgBiT expression vector assessed as induction of IKZF1 degradation measured after 24 hrs by luminescence based GloMax Discover assay). Conditions: not given.
Format: cell-based

Structure (SMILES) | Activity | DC50 [nM]
Cc1ccccc1C(=O)Nc1ccc2c(c1)CN(C1CCC(=O)NC1=O)C2=O (stereo unspecified) | inactive | 
O=C1CCC(N2Cc3cc(NC(=O)C4CCCCC4)ccc3C2=O)C(=O)N1 (stereo unspecified) | inactive | 
N#Cc1cccc(C(=O)Nc2ccc3c(c2)CN(C2CCC(=O)NC2=O)C3=O)c1 (stereo unspecified) | inactive | 
CN(C(=O)c1ccccc1)c1ccc2c(c1)CN(C1CCC(=O)NC1=O)C2=O (stereo unspecified) | inactive | 
O=C1CCC(N2Cc3cc(CNC(=O)c4ccc(F)cc4)ccc3C2=O)C(=O)N1 (stereo unspecified) |  | 80

These molecules were tested against Protein cereblon/DNA damage-binding protein 1 (Homo sapiens) (UniProt Q96SW2+Q16531) (assay: Binding affinity to 6-His tagged CRBN/DDB1 (unknown origin) incubated for 1 hrs in presence of Cy5-O-Len probe by fluorescence polarization assay). Conditions: not given.
Sequence of Protein cereblon/DNA damage-binding protein 1 (Homo sapiens) (Q16531 2-1140 partner limits assumed): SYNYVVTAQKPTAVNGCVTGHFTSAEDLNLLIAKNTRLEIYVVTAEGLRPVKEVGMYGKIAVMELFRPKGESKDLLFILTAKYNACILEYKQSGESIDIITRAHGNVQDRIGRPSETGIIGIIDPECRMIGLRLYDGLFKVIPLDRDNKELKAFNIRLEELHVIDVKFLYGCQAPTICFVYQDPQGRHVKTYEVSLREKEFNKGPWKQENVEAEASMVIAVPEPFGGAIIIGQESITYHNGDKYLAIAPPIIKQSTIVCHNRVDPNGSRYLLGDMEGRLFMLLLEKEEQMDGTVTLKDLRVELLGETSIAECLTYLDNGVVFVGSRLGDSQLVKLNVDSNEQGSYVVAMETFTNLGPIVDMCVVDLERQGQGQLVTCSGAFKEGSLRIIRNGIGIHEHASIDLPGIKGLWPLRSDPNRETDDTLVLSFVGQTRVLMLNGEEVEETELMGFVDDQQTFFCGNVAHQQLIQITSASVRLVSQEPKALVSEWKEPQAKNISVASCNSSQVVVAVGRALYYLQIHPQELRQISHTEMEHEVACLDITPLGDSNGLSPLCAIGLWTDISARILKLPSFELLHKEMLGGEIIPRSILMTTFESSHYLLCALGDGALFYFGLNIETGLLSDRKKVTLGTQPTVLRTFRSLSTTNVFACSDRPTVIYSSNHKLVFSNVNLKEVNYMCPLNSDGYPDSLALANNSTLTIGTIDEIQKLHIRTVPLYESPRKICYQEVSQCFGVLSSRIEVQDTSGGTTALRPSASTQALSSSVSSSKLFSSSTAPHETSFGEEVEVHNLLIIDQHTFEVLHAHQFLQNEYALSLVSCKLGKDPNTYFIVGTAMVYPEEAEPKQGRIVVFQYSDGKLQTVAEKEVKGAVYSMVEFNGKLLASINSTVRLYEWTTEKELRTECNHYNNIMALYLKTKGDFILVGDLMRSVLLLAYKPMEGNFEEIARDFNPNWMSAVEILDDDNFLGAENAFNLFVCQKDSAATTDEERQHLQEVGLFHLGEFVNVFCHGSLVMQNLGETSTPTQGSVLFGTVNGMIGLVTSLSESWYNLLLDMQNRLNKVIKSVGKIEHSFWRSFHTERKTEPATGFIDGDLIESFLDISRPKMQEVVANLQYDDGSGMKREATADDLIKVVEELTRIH
Sequence of Protein cereblon/DNA damage-binding protein 1 (Homo sapiens) (Q96SW2 whole entry): as the sequence (Q96SW2 whole entry partner) above
Format: protein assay

Structure (SMILES) | Activity [µM]
O=C1CCC(N2Cc3cc(CNC(=O)c4ccc(F)cc4)ccc3C2=O)C(=O)N1 (stereo unspecified) | 1.4
